Values of other authors as cited in publication PMC6882435, “Preparation and study of two kinds of ophthalmic nano-preparations of everolimus” (Drug Delivery, 2019).

Key:
[1] = parameters: method as in Baspinar et al., 2008; Tedesco-Silva et al., 2019; conditions: patients that take the drug (systemic, oral); ref Baspinar et al., 2008; Tedesco-Silva et al., 2019
[2] = parameters: method as in Iwase & Maitani, 2012; conditions: raw material at room temperature; ref Iwase & Maitani, 2012

solubility [2]: about 9.6 μg·mL^−1
SMILES: CO[C@H]1C[C@@H]2CC[C@@H](C)[C@@](O)(O2)C(=O)C(=O)N2CCCC[C@H]2C(=O)O[C@H]([C@H](C)C[C@@H]2CC[C@@H](OCCO)[C@H](OC)C2)CC(=O)[C@H](C)/C=C(\C)[C@@H](O)[C@@H](OC)C(=O)[C@H](C)C[C@H](C)/C=C/C=C/C=C/1C [Everolimus, 4 O-O-(2-hydroxyethyl)-rapamycin]
patients with side effects such as thrombocytopenia and dyslipidemia [1]: about 30%
